Our source for the IC50 values is BindingDB's records for patent US20250313563 (The Broad Institute, 2025).

Where “and” joins values, the source holds several entries; their conditions need not be identical. Equal values may be shown once.

The target of experiment [1] is Glycogen synthase kinase-3 alpha (Homo sapiens, UniProt P49840). The experiment in a line: TR-FRET Assay. The method, then:
(§1) The assay was performed in a white, 384 well, low volume, flat bottom plate (Grenier). […] The kinase activity was quenched with 2 μL of 250 mM EDTA. A 10 μL volume of 40 nM Strepavidin-d2, 2 nM Tb2+-pSer641 antibody in TR-FRET Detection Buffer (Invitrogen) was then added.
In general terms: Time-resolved FRET reads energy transfer from a long-lived donor to a nearby acceptor.

In experiment [2] the target is Glycogen synthase kinase-3 beta (Homo sapiens, UniProt P49841). The experiment in a line: TR-FRET Assay. Here is the method: as §1
Sequence of Glycogen synthase kinase-3 beta (P49841 whole entry): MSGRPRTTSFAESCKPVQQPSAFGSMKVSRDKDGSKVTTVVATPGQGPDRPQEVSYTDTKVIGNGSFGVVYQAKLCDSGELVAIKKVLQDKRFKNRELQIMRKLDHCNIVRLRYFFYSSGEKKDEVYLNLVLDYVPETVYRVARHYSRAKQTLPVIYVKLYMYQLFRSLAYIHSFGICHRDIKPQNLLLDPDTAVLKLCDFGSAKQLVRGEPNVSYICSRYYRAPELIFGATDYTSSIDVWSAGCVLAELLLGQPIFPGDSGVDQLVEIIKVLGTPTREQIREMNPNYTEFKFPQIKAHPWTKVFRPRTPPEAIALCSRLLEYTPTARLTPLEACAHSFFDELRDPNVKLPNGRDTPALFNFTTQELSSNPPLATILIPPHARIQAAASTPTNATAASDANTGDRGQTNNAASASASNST

Sequence of Glycogen synthase kinase-3 alpha (P49840 whole entry): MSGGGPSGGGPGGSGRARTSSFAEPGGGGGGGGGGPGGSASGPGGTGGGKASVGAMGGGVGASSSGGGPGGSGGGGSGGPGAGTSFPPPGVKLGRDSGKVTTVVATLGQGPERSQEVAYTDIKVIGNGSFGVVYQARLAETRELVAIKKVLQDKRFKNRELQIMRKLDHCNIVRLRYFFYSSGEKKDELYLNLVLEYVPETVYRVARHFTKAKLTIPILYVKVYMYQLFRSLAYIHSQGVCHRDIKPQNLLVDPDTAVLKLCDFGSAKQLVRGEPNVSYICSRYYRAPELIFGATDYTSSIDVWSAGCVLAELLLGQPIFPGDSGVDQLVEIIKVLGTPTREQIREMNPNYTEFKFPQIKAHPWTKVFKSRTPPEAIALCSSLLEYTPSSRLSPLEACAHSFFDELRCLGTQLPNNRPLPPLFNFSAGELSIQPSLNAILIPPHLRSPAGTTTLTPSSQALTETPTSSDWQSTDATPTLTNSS

In the case of `CCC1(c2cccc(OC(C)C)c2)C2=CN=NC2NC2=C1C(=O)CC(C)(C)C2` (centres undefined) [US20250313563, Compound 801448], the figures for the half-inhibitory concentration (IC50) in experiment [1] and in experiment [2] were under 0.1 µM and 0.1 to 1 µM, respectively.
For `CCC1(c2cccc(C(F)(F)F)c2)C2=C(CC(C)(C)CC2=O)NC2N=NC(Br)=C21` (centres undefined) [US20250313563, Compound 802358], in that order: under 0.1 µM and under 0.1 µM.
In the case of `CC1(C)CC(=O)C2=C(C1)NC1N=NC(C(F)(F)F)=C1[C@@]21CCc2c(F)cccc21` (some centres undefined) [US20250313563, Compound 806568], the IC50 (usually the midpoint of a concentration-inhibition curve) was 1 to 5 µM in experiment [1] and 0.1 to 1 µM in experiment [2].
For `CC1(C)CC(=O)C2=C(C1)NC1N=NC(C(F)(F)F)=C1[C@]21CCc2c(F)cccc21` (some centres undefined) [US20250313563, Compound 806569], in that order: under 0.1 µM and under 0.1 µM.
The corresponding values for `Cc1cccc2c1CCC21C2=C(N=NC2)NC2=C1C(=O)CC(C)(C)C2` (centres undefined) [US20250313563, Compound 806603] are under 0.1 µM and 0.1 to 1 µM.
For `CCC1(c2cccc(N3CCNCC3)c2)C2=CN=NC2NC2=C1C(=O)CC(C)(C)C2` (centres undefined) [US20250313563, Compound 806604], in that order: over 1.67 µM and over 5 µM.
On to `CC1(C)CC(=O)C2=C(C1)NC1=C(CN=N1)C2(C)c1cc(Cl)ccc1Cl` (centres undefined) [US20250313563, Compound 806605], for which the results for the IC50 in experiment [1] and in experiment [2] were 1 to 5 µM and over 5 µM, respectively.
`CC[C@@]1(c2ccccc2)C2=CN=NC2NC2=C1C(=O)C[C@H](C(F)(F)F)C2` (some centres undefined) [US20250313563, Compound 806608]: the figures for the IC50 in experiment [1] and in experiment [2] were 0.1 to 1 µM and over 1.67 µM, respectively.
Regarding `CC[C@@]1(c2ccccc2)C2=CN=NC2NC2=C1C(=O)C[C@@H](C(F)(F)F)C2` (some centres undefined) [US20250313563, Compound 806609], the IC50 was 0.1 to 1 µM in experiment [1] and over 1.67 µM in experiment [2].
`CC1(C)CC(=O)C2=C(C1)NC1N=NC=C1[C@@]21CCc2c(F)cccc21` (some centres undefined) [US20250313563, Compound 806632]: the half-maximal inhibitory concentration (IC50) in experiment [1] is over 1.67 µM; in experiment [2] it was over 5 µM.
The corresponding values for `CC1(C)CC(=O)C2=C(C1)NC1=C(CN=N1)[C@]21CCc2c(F)cccc21` [US20250313563, Compound 806633] are under 0.1 µM and 0.1 to 1 µM.
`CCC1(c2cccc(-c3ccncn3)c2)C2=CN=NC2NC2=C1C(=O)CC(C)(C)C2` (centres undefined) [US20250313563, Compound 806637]: the values for the IC50 in experiment [1] and in experiment [2] were under 0.1 µM and 0.1 to 1 µM, respectively.
As to `CC1(C)CC(=O)C2=C(C1)NC1N=NC(Br)=C1[C@@]21CCc2c(F)cccc21` (some centres undefined) [US20250313563, Compound 806938], the IC50 in experiment [1] lay in the range of 0.1 to 1 µM; in experiment [2] it was 1 to 5 µM.
The corresponding values for `CC1(C)CC(=O)C2=C(C1)NC1N=NC(Br)=C1[C@]21CCc2c(F)cccc21` (some centres undefined) [US20250313563, Compound 806939] are under 0.1 µM and under 0.1 µM.
`CCC1(c2ccccc2)C2=C(N=NC2)NC(C)=C1C(C)=O` (centres undefined) [US20250313563, Compound 806940]: the concentration for half-maximal inhibition (IC50) in experiment [1] and in experiment [2] was over 5 µM throughout.
As to `CC[C@]1(c2cccc(N(C)C(C)=O)c2)C2=CN=NC2NC2=C1C(=O)CC(C)(C)C2` (some centres undefined) [US20250313563, Compound 810358], the IC50 in experiment [1] and in experiment [2] was under 0.1 µM throughout.
Take `CC[C@@]1(c2cccc(N(C)C(C)=O)c2)C2=CN=NC2NC2=C1C(=O)CC(C)(C)C2` (some centres undefined) [US20250313563, Compound 810359]: the IC50 in experiment [1] and in experiment [2] was over 5 µM each time.
On to `CC[C@@]1(c2cccc(N3CCOCC3)c2)C2=CN=NC2NC2=C1C(=O)CC(C)(C)C2` (some centres undefined) [US20250313563, Compound 810363], for which the IC50 in experiment [1] and in experiment [2] was 0.1 to 1 µM throughout.
In the case of `CC[C@]1(c2cccc(N3CCOCC3)c2)C2=CN=NC2NC2=C1C(=O)CC(C)(C)C2` (some centres undefined) [US20250313563, Compound 810364], the IC50 in experiment [1] and in experiment [2] was over 5 µM throughout.
Consider `CC[C@]1(c2cccc(Br)c2)C2=C(CC(C)(C)CC2=O)NC2N=NC(C(F)(F)F)=C21` (some centres undefined) [US20250313563, Compound 810366], for which the IC50 is under 0.1 µM in experiment [1]; < 0.1 µM and 0.1 to 1 µM in experiment [2].
As for `CC[C@@]1(c2cccc(C(F)(F)F)c2)C2=C(CC(C)(C)CC2=O)NC2N=NC(C)=C21` (some centres undefined) [US20250313563, Compound 810367], the IC50 in experiment [1] and in experiment [2] was under 0.1 µM in each case.
On to `CC[C@]1(c2cccc(C(F)(F)F)c2)C2=C(CC(C)(C)CC2=O)NC2N=NC(C)=C21` (some centres undefined) [US20250313563, Compound 810368], for which the IC50 in experiment [1] was 0.1 to 1 µM; in experiment [2], over 1.67 µM.
As for `CC[C@@]1(c2cccc(N3CCCCC3)c2)C2=CN=NC2NC2=C1C(=O)CC(C)(C)C2` (some centres undefined) [US20250313563, Compound 810369], the IC50 in experiment [1] is under 0.1 µM; in experiment [2], 0.1 to 1 µM.
Take `CC[C@]1(c2cccc(N3CCCCC3)c2)C2=CN=NC2NC2=C1C(=O)CC(C)(C)C2` (some centres undefined) [US20250313563, Compound 810371]: the IC50 in experiment [1] and in experiment [2] was over 5 µM throughout.
With `CC[C@]1(c2cccc(C(C)C)c2)C2=CN=NC2NC2=C1C(=O)CC(C)(C)C2` (some centres undefined) [US20250313563, Compound 810373], the IC50 in experiment [1] was < 0.1 µM and 0.1 to 1 µM; in experiment [2], < 0.1 µM and 1 to 5 µM.
As to `CC[C@@]1(c2cccc(C(C)C)c2)C2=CN=NC2NC2=C1C(=O)CC(C)(C)C2` (some centres undefined) [US20250313563, Compound 810375], the IC50 in experiment [1] was 1 to 5 µM; in experiment [2], over 5 µM.
The corresponding values for `CC1(C)CC(=O)C2=C(C1)NC1=C(CN=N1)C2(C)c1cc(C(F)(F)F)ccc1F` (centres undefined) [US20250313563, Compound 810376] are under 0.1 µM and 0.1 to 1 µM.
For `CC1(C)CC(=O)C2=C(C1)NC1=C(CN=N1)C2(C)c1cc(Cl)ccc1F` (centres undefined) [US20250313563, Compound 810377], in that order: 0.1 to 1 µM and 1 to 5 µM.
On to `CCC1(c2cccc(N3CCN(C)CC3)c2)C2=CN=NC2NC2=C1C(=O)CC(C)(C)C2` (centres undefined) [US20250313563, Compound 810379], for which the 50% inhibitory concentration (IC50) in experiment [1] was over 1.67 µM; in experiment [2], over 5 µM.
On to `CC[C@]1(c2cccc(C(F)(F)F)c2)C2=CN=NC2NC2=C1C(=O)C[C@H](C)C2` (some centres undefined) [US20250313563, Compound 810450], for which the IC50 in experiment [1] is < 0.1 µM and 0.1 to 1 µM; in experiment [2], < 0.1 µM and 1 to 5 µM.
For the molecule `CC[C@@]1(c2cccc(C(F)(F)F)c2)C2=CN=NC2NC2=C1C(=O)C[C@H](C)C2` (some centres undefined) [US20250313563, Compound 810452], the IC50 in experiment [1] fell in the range of 0.1 to 1 µM; in experiment [2] it was 1 to 5 µM.
The corresponding values for `CC1(C)CC(=O)C2=C(C1)NC1=NN=C(Br)C1C21CCNc2ccccc21` (centres undefined) [US20250313563, Compound 810460] are 1 to 5 µM and over 5 µM.
For `CC[C@@]1(c2cccc(C(F)(F)F)c2)C2=C(CC(C)(C)CC2=O)NC2N=NC(Br)=C21` (some centres undefined) [US20250313563, Compound 810464], in that order: 1 to 5 µM and 1 to 5 µM.
As for `CC[C@]1(c2cccc(Br)c2)C2=CN=NC2NC2=C1C(=O)C[C@@H](C)C2` (some centres undefined) [US20250313563, Compound 810484], the half-inhibitory concentration (IC50) in experiment [1] and in experiment [2] was over 5 µM throughout.
`CC[C@@]1(c2cccc(Br)c2)C2=CN=NC2NC2=C1C(=O)C[C@@H](C)C2` (some centres undefined) [US20250313563, Compound 810485]: the half-inhibitory concentration (IC50) in experiment [1] and in experiment [2] was over 5 µM in each case.
On to `CC[C@]1(c2cccc(Br)c2)C2=CN=NC2NC2=C1C(=O)C[C@H](C)C2` (some centres undefined) [US20250313563, Compound 810486], for which the IC50 in experiment [1] is under 0.1 µM; in experiment [2], 0.1 to 1 µM.
For the molecule `CC[C@@]1(c2cccc(Br)c2)C2=CN=NC2NC2=C1C(=O)C[C@H](C)C2` (some centres undefined) [US20250313563, Compound 810487], the IC50 in experiment [1] is under 0.1 µM; in experiment [2], 0.1 to 1 µM.
On to `CC[C@]1(c2cccc(-c3ccncn3)c2)C2=CN=NC2NC2=C1C(=O)CC(C)(C)C2` (some centres undefined) [US20250313563, Compound 810488], for which the IC50 was under 0.1 µM in experiment [1] and 0.1 to 1 µM in experiment [2].
For `CC[C@@]1(c2cccc(-c3ccncn3)c2)C2=CN=NC2NC2=C1C(=O)CC(C)(C)C2` (some centres undefined) [US20250313563, Compound 810489], in that order: 1 to 5 µM and over 5 µM.
The corresponding values for `CC(C)(C)CC1=C2C(N=N1)NC1=C(C(=O)CC(C)(C)C1)C21CCCc2ccccc21` (centres undefined) [US20250313563, Compound 810495] are 0.1 to 1 µM and under 0.1 µM.
In the case of `CCC1(CC)C2=C(N=NC2)NC2=C1C(=O)CC(C)(C)C2` [US20250313563, Compound 810505], the 50% inhibitory concentration (IC50) is 1 to 5 µM in experiment [1] and over 5 µM in experiment [2].
Consider `CCC1(c2cccc(N3CCCC3)c2)C2=C(CC(C)(C)CC2=O)NC2N=NC(C(F)(F)F)=C21` (centres undefined) [US20250313563, Compound 810506], for which the half-maximal inhibitory concentration (IC50) in experiment [1] and in experiment [2] was under 0.1 µM in each case.
As for `CCC1(c2cccc(N3CCOCC3)c2)C2=C(CC(C)(C)CC2=O)NC2N=NC(C(F)(F)F)=C21` (centres undefined) [US20250313563, Compound 810507], the 50% inhibitory concentration (IC50) in experiment [1] and in experiment [2] was under 0.1 µM each time.
Regarding `CCC1(c2cccc(SC)c2)C2=CN=NC2NC2=C1C(=O)CC(C)(C)C2` (centres undefined) [US20250313563, Compound 810508], the results for the IC50 in experiment [1] and in experiment [2] were under 0.1 µM and 0.1 to 1 µM, respectively.
With `CC[C@]1(c2cccc(N3CCCC3)c2)C2=CN=NC2NC2=C1C(=O)CC(C)(C)C2` (some centres undefined) [US20250313563, Compound 810509], the 50% inhibitory concentration (IC50) in experiment [1] and in experiment [2] was over 5 µM each time.
For `CC[C@@]1(c2cccc(N3CCCC3)c2)C2=CN=NC2NC2=C1C(=O)CC(C)(C)C2` (some centres undefined) [US20250313563, Compound 810510], the values for the IC50 in experiment [1] and in experiment [2] were under 0.1 µM and 0.1 to 1 µM, respectively.
`CC1(C)CC(=O)C2=C(C1)NC1N=NC(CC(F)(F)F)=C1C21CCc2c(F)cccc21` (centres undefined) [US20250313563, Compound 810590]: the 50% inhibitory concentration (IC50) in experiment [1] and in experiment [2] was 0.1 to 1 µM throughout.
